# In ChEMBL document CHEMBL4800728, “Data for DCP probe JNJ-54119936” (2021):
# pIC50, pKi: −log10 of the molar value.
# Key:
# [1] = target: Estrogen receptor beta (Homo sapiens) (UniProt Q92731); assay: ERbeta Indigo Bioscience nuclear receptor screen
# [2] = target: C-C chemokine receptor type 1 (Homo sapiens) (UniProt P32246); assay: CCR1 (h) CEREP screen; settings: Compound concentration 1.0 uM
# [3] = target: Protein kinase C beta type (Homo sapiens) (UniProt P05771); assay: PKCbetaI Invitrogen kinase panel; settings: Compound concentration 10.0 uM
# [4] = target: Vitamin D3 receptor (Homo sapiens) (UniProt P11473); assay: VDR Indigo Bioscience nuclear receptor screen
# Vitamin D3 receptor (Homo sapiens), sequence (P11473 whole entry): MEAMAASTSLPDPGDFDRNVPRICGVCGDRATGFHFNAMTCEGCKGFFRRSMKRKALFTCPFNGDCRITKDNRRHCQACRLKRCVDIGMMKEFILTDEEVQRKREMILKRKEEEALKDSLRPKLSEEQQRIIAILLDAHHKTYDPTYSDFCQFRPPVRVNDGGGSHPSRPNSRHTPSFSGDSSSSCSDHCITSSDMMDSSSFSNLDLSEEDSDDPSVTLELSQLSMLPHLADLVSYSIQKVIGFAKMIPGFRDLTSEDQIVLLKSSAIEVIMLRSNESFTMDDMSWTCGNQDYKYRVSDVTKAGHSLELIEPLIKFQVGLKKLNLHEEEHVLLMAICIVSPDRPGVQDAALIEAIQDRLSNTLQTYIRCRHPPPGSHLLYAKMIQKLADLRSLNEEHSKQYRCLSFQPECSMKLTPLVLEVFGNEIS
# [5] = target: Nuclear receptor ROR-beta (Homo sapiens) (UniProt Q92753); assay: ThermoFluor Binding Assay (RORB)
# [6] = target: Calcium/calmodulin-dependent protein kinase type II subunit beta (Homo sapiens) (UniProt Q13554); assay: CaMKIIbeta Invitrogen kinase panel; settings: Compound concentration 10.0 uM
# [7] = target: Serine/threonine-protein kinase pim-2 (Homo sapiens) (UniProt Q9P1W9); assay: Pim2 Invitrogen kinase panel; settings: Compound concentration 10.0 uM
# [8] = target: Serine/threonine-protein kinase PLK1 (Homo sapiens) (UniProt P53350); assay: Plk1 Invitrogen kinase panel; settings: Compound concentration 10.0 uM
# [9] = target: Sodium-dependent noradrenaline transporter (Homo sapiens) (UniProt P23975); assay: norepinephrine transporter (h) CEREP screen
# Sodium-dependent noradrenaline transporter (Homo sapiens), sequence (P23975 whole entry): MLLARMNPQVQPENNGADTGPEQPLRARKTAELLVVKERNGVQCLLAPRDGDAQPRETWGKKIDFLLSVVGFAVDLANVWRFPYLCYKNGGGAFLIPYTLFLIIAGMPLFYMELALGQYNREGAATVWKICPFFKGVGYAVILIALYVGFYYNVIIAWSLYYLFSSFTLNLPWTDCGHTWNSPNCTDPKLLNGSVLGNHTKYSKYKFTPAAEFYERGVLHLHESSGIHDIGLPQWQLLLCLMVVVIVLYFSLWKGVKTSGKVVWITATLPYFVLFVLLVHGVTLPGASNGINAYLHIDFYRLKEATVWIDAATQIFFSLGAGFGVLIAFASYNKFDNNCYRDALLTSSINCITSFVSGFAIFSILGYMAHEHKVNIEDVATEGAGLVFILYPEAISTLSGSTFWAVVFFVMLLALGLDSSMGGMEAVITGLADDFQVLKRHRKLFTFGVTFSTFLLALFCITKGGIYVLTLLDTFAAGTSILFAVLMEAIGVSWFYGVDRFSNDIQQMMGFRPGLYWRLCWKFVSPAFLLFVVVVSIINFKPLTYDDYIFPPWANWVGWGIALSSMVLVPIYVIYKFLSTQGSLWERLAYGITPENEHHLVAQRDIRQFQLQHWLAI
# [10] = target: Sigma intracellular receptor 2 (Homo sapiens, UniProt Q5BJF2); assay: GPCRScan assay: inhibition of Sigma 2; set-up: radioligand conc. used [nm] 5.0, parental cells HEKT
# Sigma intracellular receptor 2, sequence (Q5BJF2 whole entry): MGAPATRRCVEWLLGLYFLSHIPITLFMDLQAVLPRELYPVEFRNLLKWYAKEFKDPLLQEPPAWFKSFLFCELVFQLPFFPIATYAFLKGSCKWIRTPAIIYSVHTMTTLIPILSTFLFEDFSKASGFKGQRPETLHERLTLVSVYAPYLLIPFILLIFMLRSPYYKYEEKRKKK
# [11] = target: Serine/threonine-protein kinase Nek2 (Homo sapiens) (UniProt P51955); assay: NEK2 Invitrogen kinase panel; settings: Compound concentration 10.0 uM
# [12] = target: Rho-associated protein kinase 1 (Homo sapiens) (UniProt Q13464); assay: ROCK_I Invitrogen kinase panel; settings: Compound concentration 10.0 uM
# [13] = target: Substance-K receptor (Homo sapiens) (UniProt P21452); assay: NK2 (h) CEREP screen; settings: Compound concentration 10.0 uM
# [14] = target: Protein kinase C alpha type (Homo sapiens) (UniProt P17252); assay: PKCalpha Invitrogen kinase panel; settings: Compound concentration 10.0 uM
# [15] = target: Fibroblast growth factor receptor 1 (Homo sapiens) (UniProt P11362); assay: FGFR1 Invitrogen kinase panel; settings: Compound concentration 10.0 uM
# [16] = target: Adenosine receptor A2a (Homo sapiens) (UniProt P29274); assay: A2a (h) CEREP screen
# Adenosine receptor A2a (Homo sapiens), sequence (P29274 whole entry): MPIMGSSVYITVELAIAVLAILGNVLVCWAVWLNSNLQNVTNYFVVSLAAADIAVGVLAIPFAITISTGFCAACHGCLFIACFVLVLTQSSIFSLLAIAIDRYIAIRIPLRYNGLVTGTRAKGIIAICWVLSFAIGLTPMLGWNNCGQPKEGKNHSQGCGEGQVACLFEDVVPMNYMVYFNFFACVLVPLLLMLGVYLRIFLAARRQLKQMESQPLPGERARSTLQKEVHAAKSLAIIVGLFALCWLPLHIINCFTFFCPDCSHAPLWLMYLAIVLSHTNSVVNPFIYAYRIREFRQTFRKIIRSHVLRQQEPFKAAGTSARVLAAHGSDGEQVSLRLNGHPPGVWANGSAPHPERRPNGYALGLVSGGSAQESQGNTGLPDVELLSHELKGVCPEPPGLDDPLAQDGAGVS
# [17] = target: C-X-C chemokine receptor type 2 (Homo sapiens) (UniProt P25025); assay: CXCR2 (h) CEREP screen; settings: Compound concentration 1.0 uM
# [18] = target: T1, Peroxisome proliferator-activated receptor gamma (Homo sapiens) (UniProt P37231); assay: (§1) PPARgamma In-house nuclear receptor screen; settings: Compound concentration 3.0 uM
# T1 sequence (whole entry): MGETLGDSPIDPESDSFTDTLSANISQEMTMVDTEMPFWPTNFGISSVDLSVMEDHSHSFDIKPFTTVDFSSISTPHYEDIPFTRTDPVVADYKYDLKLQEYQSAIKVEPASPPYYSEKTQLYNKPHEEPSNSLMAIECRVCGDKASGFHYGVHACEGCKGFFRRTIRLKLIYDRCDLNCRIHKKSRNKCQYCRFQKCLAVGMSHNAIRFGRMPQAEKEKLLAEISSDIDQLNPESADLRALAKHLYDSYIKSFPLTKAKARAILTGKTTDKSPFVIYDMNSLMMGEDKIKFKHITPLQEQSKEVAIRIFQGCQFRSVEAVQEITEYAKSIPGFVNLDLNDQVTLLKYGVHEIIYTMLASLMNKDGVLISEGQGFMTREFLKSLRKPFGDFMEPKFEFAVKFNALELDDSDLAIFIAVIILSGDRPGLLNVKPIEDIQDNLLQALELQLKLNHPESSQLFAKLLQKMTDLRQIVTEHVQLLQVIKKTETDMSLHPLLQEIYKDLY
# [19] = target: Peroxisome proliferator-activated receptor gamma (Homo sapiens, UniProt P37231); assay: as §1
# [20] = target: Interleukin-1 receptor-associated kinase 4 (Homo sapiens) (UniProt Q9NWZ3); assay: IRAK4 Invitrogen kinase panel; settings: Compound concentration 10.0 uM
# Interleukin-1 receptor-associated kinase 4 (Homo sapiens), sequence (Q9NWZ3 whole entry): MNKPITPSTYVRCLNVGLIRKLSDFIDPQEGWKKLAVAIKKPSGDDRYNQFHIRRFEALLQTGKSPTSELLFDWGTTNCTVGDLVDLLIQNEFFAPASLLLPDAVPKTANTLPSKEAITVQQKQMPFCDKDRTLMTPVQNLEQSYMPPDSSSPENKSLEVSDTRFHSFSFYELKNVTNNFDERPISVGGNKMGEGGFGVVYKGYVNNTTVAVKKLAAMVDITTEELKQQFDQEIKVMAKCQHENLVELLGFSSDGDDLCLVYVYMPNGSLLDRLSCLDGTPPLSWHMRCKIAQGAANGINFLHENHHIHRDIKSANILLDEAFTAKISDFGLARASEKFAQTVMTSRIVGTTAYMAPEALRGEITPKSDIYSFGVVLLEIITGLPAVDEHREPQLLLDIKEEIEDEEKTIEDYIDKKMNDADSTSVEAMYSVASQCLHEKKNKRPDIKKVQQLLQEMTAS
# [21] = target: Aurora kinase B (Homo sapiens) (UniProt Q96GD4); assay: Aurora_B Invitrogen kinase panel; settings: Compound concentration 10.0 uM
# Aurora kinase B (Homo sapiens), sequence (Q96GD4 whole entry): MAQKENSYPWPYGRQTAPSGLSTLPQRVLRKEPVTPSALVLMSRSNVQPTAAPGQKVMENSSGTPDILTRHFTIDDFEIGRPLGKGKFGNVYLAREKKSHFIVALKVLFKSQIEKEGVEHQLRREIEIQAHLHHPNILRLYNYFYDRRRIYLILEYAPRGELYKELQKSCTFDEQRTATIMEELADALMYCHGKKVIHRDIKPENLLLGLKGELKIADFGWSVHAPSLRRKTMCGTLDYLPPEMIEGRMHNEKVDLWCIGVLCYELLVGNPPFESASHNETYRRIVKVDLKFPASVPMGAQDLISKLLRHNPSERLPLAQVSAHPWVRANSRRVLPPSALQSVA
# [22] = target: Proto-oncogene tyrosine-protein kinase receptor Ret (Homo sapiens) (UniProt P07949); assay: Ret Invitrogen kinase panel; settings: Compound concentration 10.0 uM
# Proto-oncogene tyrosine-protein kinase receptor Ret (Homo sapiens), sequence (P07949 whole entry): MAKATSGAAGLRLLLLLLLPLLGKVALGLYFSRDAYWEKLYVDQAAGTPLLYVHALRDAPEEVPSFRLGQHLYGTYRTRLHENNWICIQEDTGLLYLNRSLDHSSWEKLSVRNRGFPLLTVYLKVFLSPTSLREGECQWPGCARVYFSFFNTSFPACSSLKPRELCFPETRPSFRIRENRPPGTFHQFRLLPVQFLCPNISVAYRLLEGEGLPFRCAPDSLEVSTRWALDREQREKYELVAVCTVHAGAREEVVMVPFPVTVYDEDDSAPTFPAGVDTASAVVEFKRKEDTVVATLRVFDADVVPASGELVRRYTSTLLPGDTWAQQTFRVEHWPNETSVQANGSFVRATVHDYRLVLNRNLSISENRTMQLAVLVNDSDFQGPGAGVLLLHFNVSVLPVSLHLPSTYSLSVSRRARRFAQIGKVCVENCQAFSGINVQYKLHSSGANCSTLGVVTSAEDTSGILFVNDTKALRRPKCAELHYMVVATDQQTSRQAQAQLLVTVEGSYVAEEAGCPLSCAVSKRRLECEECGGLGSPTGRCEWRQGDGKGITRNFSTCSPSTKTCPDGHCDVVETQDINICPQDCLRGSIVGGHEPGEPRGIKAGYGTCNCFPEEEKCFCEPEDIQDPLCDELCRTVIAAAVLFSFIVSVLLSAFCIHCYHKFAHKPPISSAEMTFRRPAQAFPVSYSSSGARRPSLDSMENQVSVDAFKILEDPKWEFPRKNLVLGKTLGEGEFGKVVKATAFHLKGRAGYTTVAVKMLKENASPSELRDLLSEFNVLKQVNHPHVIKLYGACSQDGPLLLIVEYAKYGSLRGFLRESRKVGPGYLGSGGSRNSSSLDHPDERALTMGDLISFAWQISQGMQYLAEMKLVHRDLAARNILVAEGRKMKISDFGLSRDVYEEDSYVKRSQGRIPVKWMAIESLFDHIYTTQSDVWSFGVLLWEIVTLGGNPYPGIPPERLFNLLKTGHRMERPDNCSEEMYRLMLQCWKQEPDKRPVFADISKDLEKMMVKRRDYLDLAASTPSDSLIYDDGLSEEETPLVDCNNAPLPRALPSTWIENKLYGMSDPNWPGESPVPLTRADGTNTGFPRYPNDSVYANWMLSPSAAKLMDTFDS
# [23] = target: T2, Oxysterols receptor LXR-beta (Homo sapiens) (UniProt P55055); assay: (§2) LXRbeta In-house nuclear receptor screen; settings: Compound concentration 3.0 uM
# T2 sequence (whole entry): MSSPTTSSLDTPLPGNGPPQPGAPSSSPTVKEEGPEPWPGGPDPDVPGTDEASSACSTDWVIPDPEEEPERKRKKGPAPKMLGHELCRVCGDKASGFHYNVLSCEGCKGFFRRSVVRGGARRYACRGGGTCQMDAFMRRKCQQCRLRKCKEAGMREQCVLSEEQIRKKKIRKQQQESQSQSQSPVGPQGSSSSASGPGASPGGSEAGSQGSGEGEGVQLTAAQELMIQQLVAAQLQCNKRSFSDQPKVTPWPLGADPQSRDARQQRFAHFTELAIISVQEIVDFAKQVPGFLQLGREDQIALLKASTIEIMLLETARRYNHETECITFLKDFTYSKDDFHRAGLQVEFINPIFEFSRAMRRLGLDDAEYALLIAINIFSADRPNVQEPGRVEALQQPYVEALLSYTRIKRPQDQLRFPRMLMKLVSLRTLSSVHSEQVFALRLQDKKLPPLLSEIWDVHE
# [24] = target: Oxysterols receptor LXR-beta (Homo sapiens, UniProt P55055); assay: as §2
# [25] = target: T3, Estrogen receptor (Homo sapiens) (UniProt P03372); assay: ERalpha Indigo Bioscience nuclear receptor screen
# T3 sequence (whole entry): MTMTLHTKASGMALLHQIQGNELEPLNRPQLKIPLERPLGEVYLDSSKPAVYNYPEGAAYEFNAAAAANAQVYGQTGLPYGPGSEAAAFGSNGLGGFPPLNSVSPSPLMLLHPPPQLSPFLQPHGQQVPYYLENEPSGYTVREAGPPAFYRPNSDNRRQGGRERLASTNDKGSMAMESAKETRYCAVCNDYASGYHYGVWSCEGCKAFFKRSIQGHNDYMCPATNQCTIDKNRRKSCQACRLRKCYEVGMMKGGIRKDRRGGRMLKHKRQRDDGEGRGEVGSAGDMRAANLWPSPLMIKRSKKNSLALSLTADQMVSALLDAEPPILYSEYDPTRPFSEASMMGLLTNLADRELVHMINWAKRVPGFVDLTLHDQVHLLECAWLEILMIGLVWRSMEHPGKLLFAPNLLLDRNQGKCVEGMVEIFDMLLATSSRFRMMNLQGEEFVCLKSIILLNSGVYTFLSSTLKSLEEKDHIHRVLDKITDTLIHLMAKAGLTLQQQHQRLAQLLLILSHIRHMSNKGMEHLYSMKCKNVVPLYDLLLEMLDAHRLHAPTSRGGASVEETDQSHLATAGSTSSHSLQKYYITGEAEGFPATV
# [26] = target: Alpha-2A adrenergic receptor (Homo sapiens) (UniProt P08913); settings: Compound concentration 10.0 uM
# Alpha-2A adrenergic receptor (Homo sapiens), sequence (P08913 whole entry): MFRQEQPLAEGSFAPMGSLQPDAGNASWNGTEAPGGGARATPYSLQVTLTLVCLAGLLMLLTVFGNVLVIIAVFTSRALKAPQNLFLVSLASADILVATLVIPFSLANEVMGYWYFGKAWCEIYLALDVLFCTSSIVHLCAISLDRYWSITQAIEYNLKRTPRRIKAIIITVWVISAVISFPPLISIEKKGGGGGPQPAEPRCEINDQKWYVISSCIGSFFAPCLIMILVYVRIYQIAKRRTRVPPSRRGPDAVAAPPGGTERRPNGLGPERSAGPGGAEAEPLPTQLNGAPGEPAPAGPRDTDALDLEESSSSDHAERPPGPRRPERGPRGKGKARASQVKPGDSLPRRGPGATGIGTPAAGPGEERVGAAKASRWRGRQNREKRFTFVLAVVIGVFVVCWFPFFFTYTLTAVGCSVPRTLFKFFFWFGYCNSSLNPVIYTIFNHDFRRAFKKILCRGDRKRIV
# Estrogen receptor beta (Homo sapiens), sequence (Q92731 whole entry): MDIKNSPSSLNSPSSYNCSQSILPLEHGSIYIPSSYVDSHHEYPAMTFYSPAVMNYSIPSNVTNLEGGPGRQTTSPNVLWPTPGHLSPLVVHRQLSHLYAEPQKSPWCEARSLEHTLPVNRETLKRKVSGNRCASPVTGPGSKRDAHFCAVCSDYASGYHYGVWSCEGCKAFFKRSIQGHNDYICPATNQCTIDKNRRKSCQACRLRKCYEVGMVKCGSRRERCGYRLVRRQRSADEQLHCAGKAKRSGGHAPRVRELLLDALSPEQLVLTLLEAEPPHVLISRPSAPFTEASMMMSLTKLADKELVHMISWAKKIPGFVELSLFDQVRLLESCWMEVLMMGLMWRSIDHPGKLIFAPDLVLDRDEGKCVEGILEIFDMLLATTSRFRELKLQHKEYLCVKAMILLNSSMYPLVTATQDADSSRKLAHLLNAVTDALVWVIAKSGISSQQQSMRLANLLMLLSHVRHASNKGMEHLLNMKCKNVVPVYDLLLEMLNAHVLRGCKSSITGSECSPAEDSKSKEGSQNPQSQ
# C-C chemokine receptor type 1 (Homo sapiens), sequence (P32246 whole entry): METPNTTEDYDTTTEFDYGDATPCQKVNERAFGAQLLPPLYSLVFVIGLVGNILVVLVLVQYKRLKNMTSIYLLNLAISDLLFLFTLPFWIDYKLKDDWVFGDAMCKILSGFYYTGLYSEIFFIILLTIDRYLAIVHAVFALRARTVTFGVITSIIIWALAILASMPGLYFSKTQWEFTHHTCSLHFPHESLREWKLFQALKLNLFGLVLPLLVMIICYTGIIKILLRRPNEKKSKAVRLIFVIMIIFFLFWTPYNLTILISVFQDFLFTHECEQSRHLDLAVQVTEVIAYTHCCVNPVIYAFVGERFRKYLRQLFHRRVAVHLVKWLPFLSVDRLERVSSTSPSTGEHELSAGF
compound,measurement,setting,value
COc1nc2ccc([C@@](O)(c3ccccc3)C3CCN(C(C)=O)CC3)cc2c(Cl)c1Cc1ccc(-n2cccn2)cc1 [JNJ-54119936],inhibition,[1]; Compound concentration 0.3 uM,1.77%
same,inhibition,[1]; Compound concentration 1.0 uM,7.87%
same,inhibition,[1]; Compound concentration 3.0 uM,14.8%
same,inhibition,[2],17%
same,inhibition,[3],1%
same,inhibition,[4]; Compound concentration 0.3 uM,-6.97%
same,inhibition,[4]; Compound concentration 1.0 uM,-0.284%
same,qKD,[5],> 75 µM
same,inhibition,[6],7%
same,inhibition,[7],1%
same,inhibition,[8],-1%
same,inhibition,[9]; Compound concentration 1.0 uM,34%
same,inhibition,[9]; Compound concentration 10.0 uM,16%
same,pKi,[10]; read-out: Ki,6.20
same,Ki,[10]; read-out: pKi (converted),603 nM
same,inhibition,[11],3%
same,inhibition,[12],4%
same,inhibition,[13],23%
same,inhibition,[14],4%
same,inhibition,[15],-2%
same,inhibition,[16]; Compound concentration 1.0 uM,18%
same,inhibition,[16]; Compound concentration 10.0 uM,21%
same,inhibition,[17],10%
same,inhibition,[18],28.2%
same,pIC50,[19],5.27
same,inhibition,[20],6%
same,inhibition,[21],21%
same,inhibition,[22],3%
same,inhibition,[23],10%
same,pIC50,[24],~5.30
same,inhibition,[25]; Compound concentration 0.3 uM,-1.2%
same,inhibition,[25]; Compound concentration 1.0 uM,0.61%
same,inhibition,[25]; Compound concentration 3.0 uM,-3.01%
same,inhibition,[26],20.8%
